Data from patent publication US11202776B2, “Treatment of gastroparesis with triazaspiro[4.5]decanone” (Millennium Pharmaceuticals, Inc., priority 2017, dated 2021).
Where a name gives a salt, the structure may show the parent alone. Read-outs that look alike come from different tables or passages of the source.

Assay: Phase I multiple-ascending dose (MAD) pharmacokinetics, BID Days 1-4 and single morning dose Day 5
Type: in vivo, human
Conditions: for Tlast / Cmax / Tmax / half-life / AUC / concentration at 12 h / concentration at 24 h: fasting; for Cav, ss / Cmin / Tmin / AI: steady state; for AI: Day 5, mean; for Cmax / Tmax / half-life / AUC / concentration at 12 h / concentration at 24 h: human, plasma; for Cmax / Tmax / half-life / AUC: po; for AUC: read-out: AUC12; for concentration at 12 h / concentration at 24 h: read-out: Clast
Description: A phase I randomized, double-blind, placebo-controlled, adaptive-design, single-ascending dose (SAD) and multiple-ascending dose (MAD) study was conducted in healthy human subjects to evaluate the safety, tolerability, pharmacokinetics (PK), pharmacodynamics (PD), food effect, and optimal oral dose of 3-((1-cyclohexyl-4-oxo-8-(4-oxo-4-phenylbutyl)-1,3,8-triazaspiro[4.5]decan-3-yl)methyl)benzoic acid maleate (hereinafter, “the Maleate Salt”). The SAD phase included an arm to evaluate food effect on the PK of the Maleate Salt. The SAD phase also evaluated the effect of the Maleate Salt on ECG parameters, including an assessment of QT-interval changes using exposure-response analysis.
The Maleate Salt was formulated in the study as immediate-release, hard gelatin capsules for oral administration. Each capsule contained 5 mg or 25 mg of the Maleate Salt, as well as microcrystalline cellulose NF (AVICEL® PH-102), sodium starch glycolate NF (EXPLOTAB®), and magnesium stearate NF, all filled into a size 3 hard gelatin capsule. A matching placebo containing the same amount of microcrystalline cellulose NF in place of the Maleate Salt was used in the study. The Maleate Salt capsules and matching placebo capsules were packaged in high-density polyethylene (HDPE) bottles with polypropylene caps and stored at controlled conditions per the USP.
A total of 54 subjects received at least 1 dose of the Maleate Salt, ranging from 5 mg to the maximum single PO dose of 300 mg. Six subjects received a maximum single PO dose of 300 mg and 5 subjects received a total of 900 mg of the Maleate Salt over 5-day period (100 mg BID for 4 days with single 100 mg on Day 5).
The MAD phase had 2 cohorts dosed at 50 and 100 mg of the Maleate Salt. In each cohort, there were 6 active- and 2 placebo-treated subjects. The Maleate Salt was administered to fasting subjects BID (morning and evening) on Days 1 through 4 and as a single morning dose on Day 5.
On Day 1, mean T1/2 was approximately 2 h for both 50 and 100 mg BID doses. On Day 5, mean T1/2 was 11.0 and 6.2 h following 50 and 100 mg BID doses, respectively. For T1/2 determination, the plasma samples for Day 1 were only collected to 12 h, whereas the plasma samples for Day 5 were collected to 24 h.

For `O=C(O)c1cccc(CN2CN(C3CCCCC3)C3(CCN(CCCC(=O)c4ccccc4)CC3)C2=O)c1` [the Maleate Salt, 3-((1-cyclohexyl-4-oxo-8-(4-oxo-4-phenylbutyl)-1,3,8-triazaspiro[4.5]decan-3-yl)methyl)benzoic acid maleate], which Tlast (50 mg BID PO, Day 1) is on record?
The Tlast was 12.0 h.

What about the Tlast (50 mg BID PO, Day 5) of the same molecule?
The Tlast was 24.0 h.

And the “Cav, ss” value (50 mg BID PO, Day 5)?
The value was 4.84 ng/mL.

And the Cmin (50 mg BID PO, Day 5)?
Its Cmin is 0.32 ng/mL.

What about the Tmin (50 mg BID PO, Day 5) of the same molecule?
Its Tmin is 8.0 h.

What about the AI (50 mg BID PO) of the same molecule?
The AI was 1.89.

And the Tlast (100 mg BID PO, Day 1)?
The Tlast was 12.0 h.

And the Tlast (100 mg BID PO, Day 5)?
Its Tlast is 24.0 h.

What about the “Cav, ss” value (100 mg BID PO, Day 5) of the same molecule?
Its value is 16.71 ng/mL.

And the Cmin (100 mg BID PO, Day 5)?
Its Cmin is 0.65 ng/mL.

And the Tmin (100 mg BID PO, Day 5)?
Its Tmin is 4.8 h.

And the AI (100 mg BID PO)?
The AI was 1.38.

And the “Accumulation for AUC12” value (50 or 100 mg BID dosing)?
The value was “less than 30%”.

And the “Accumulation for Cmax” value (50 or 100 mg BID dosing)?
Its value is “less than 40%”.

And the Cmax (50 mg, 50 mg BID PO, Day 1)?
Its Cmax is 23.3 ng/mL.

And the Tmax (50 mg, 50 mg BID PO, Day 1)?
Its Tmax is 1.55 h.

And the half-life (50 mg, 50 mg BID PO, Day 1 (samples collected to 12 h))?
The half-life was ~2 h.

What about the AUC (50 mg, 50 mg BID PO, Day 1) of the same molecule?
Its AUC is 53.6 ng·h/mL.

What about the Cmax (50 mg, 50 mg BID PO, Day 5) of the same molecule?
Its Cmax is 31.2 ng/mL.

What about the Tmax (50 mg, 50 mg BID PO, Day 5) of the same molecule?
Its Tmax is 1.17 h.

What about the half-life (50 mg, 50 mg BID PO, Day 5 (samples collected to 24 h)) of the same molecule?
Its half-life is 11 h.

And the AUC (50 mg, 50 mg BID PO, Day 5)?
Its AUC is 58.1 ng·h/mL.

What about the Cmax (100 mg, 100 mg BID PO, Day 1) of the same molecule?
The Cmax was 71.5 ng/mL.

And the Tmax (100 mg, 100 mg BID PO, Day 1)?
The Tmax was 1.03 h.

And the half-life (100 mg, 100 mg BID PO, Day 1 (samples collected to 12 h))?
Its half-life is ~2 h.

What about the AUC (100 mg, 100 mg BID PO, Day 1) of the same molecule?
The AUC was 152 ng·h/mL.

And the Cmax (100 mg, 100 mg BID PO, Day 5)?
The Cmax was 71.6 ng/mL.

And the Tmax (100 mg, 100 mg BID PO, Day 5)?
Its Tmax is 1.53 h.

What about the half-life (100 mg, 100 mg BID PO, Day 5 (samples collected to 24 h)) of the same molecule?
Its half-life is 6.2 h.

What about the AUC (100 mg, 100 mg BID PO, Day 5) of the same molecule?
The AUC was 200 ng·h/mL.

What about the concentration at 12 h (50 mg BID PO, Day 1) of the same molecule?
Its concentration at 12 h is 0.2 ng/mL.

And the concentration at 24 h (50 mg BID PO, Day 5)?
The concentration at 24 h was 0.18 ng/mL.

What about the concentration at 12 h (100 mg BID PO, Day 1) of the same molecule?
Its concentration at 12 h is 0.42 ng/mL.

And the concentration at 24 h (100 mg BID PO, Day 5)?
Its concentration at 24 h is 0.28 ng/mL.
